One assay concerns EGFP in CHO cells. Put plainly: siRNA treatment, EGFP down-regulation in EGFP stable CHO cells (FACS, confocal microscopy). Format: cell-based. On the procedure: A 24-well plate with EGFP-stable CHO cells were seeded one day prior transfection. On the day of transfection, transfect the cells with PF6-siRNA complexes, molar ratios between siRNA:PF6 a) for serum free media incubations: 1:20 and 1:40 with siRNA concentrations 50 nM, 25 nM and 12.5 nM; nd 1:80 with siRNA concentrations 20 nM, 10 nM and 5 nM. b) for full media incubations: 1:20 and 1:40 with siRNA concentrations 100 nM, 50 nM and 25 nM. For control experiments the cells were transfected with EGFP siRNA using Lipofectamine (100 nM siRNA and 2.8 ul of Lipofectamine), or mock transfected without complexes or only with siRNA (to get native EGFP levels). The incubation vol. during transfections was 500 ul. Incubate the cells with the complexes in serum free media or in full media, as required, for 4 hours. Then add 1 ml of full media into each well and let the cells grow for 24 (or, alternatively, for 48 hours).
On the day of measurement, wash the cells with PBS, and detach from the wells by trypsination. Use 125 ul trypsin solution. After the cells have detached, add 500 ul full media and transfer the cells into eppendorf tubes. Centrifuge at 500×g for 10 min, remove supernatant and resuspend in 500 ul of PBS supplemented with 2% FBS (this FBS is quite important, keeps the cells in better shape when the tubes are waiting to be analyzed). Transfer the cell suspensions info FACS tubes and put them on ice. Analyze as soon as possible. Measure the cell suspensions in FACS. Gate the living cell population on FSC-SSC plot. On the FSC/FITC-A or SSC/FITC-A plot find the gates for moctransfected cells (gate/cloud for cells with native EGFP levels). Run the samples using the same gates. All the cells falling out from the cloud with native EGFP-levels and having lower EGFP levels will be counted as cells where the siRNA transfection has taken place. Present the results as % of cells transfected with siRNA. Alternatively, choose the gates in a similar way based on mock-transfected cells using FITC-A histogram graph.

For the next assay, the system named is HPRT1 in N2a cells. The experiment in a line: siRNA treatment, HPRT1 in N2a cells. Format: cell-based. Conditions: target HPRT1. On the procedure:
(§1) Phosphorothioate 2′O methyl RNA (SCO) or anti-miR21 2′OMe RNA (with 33% LNA substitution) was mixed with CPPs at different molar ratios (1:0-1:20) in MQ water in 1/10th of the final treatment volume (i.e 50 μl). Complexes were formed for 30 min in RT and meanwhile media was replaced in 24-well plates to fresh serum free DMEM (450 μl). Thereafter, complexes were added to each well. The final concentration of SCO was kept constant at 200 nM and peptide concentration was varied or complexes were formed at a given molar ratio using 400 nM SCO and then serial diluted in water. Complexes were prepared according to manufacturers protocol when using the commercial transfection reagent Lipofectamine 2000 (Promega, USA). PepFect/siRNA complexes were essentially formed in a similar manner but using 100 nM siRNA as starting concentrations and molar ratios ranging from 20-40. Lower concentrations were generated by doing serial dilutions.

A further assay deals with HPRT1 in SHSY5Y cells. Put plainly: siRNA treatment, HPRT1 knock-down in SHSY5Y neuroblastoma cells. It counts as cell-based, human. On the procedure: HPRT1 knock-down in human SHSY5Y neuroblastoma cells following 20 h of siRNA treatment. PF6/siRNA particles where formulated at two different molar ratios and serial diluted to give a final treatment concentration of 100, 50 and 25 nM siRNA. Treatments were performed in full growth media and the RNAi response was compared to that induced by 100 nM siRNA complexed with Lipofectamine 2000.
as §1

A further assay has as its system Jurkat suspension cells. The experiment in a line: Transfection of EGFP plasmids in Jurkat suspension cells (FACS). Format: cell-based. The following applies: 24 h, serum free media. On the procedure:
EGFP expression was assessed 24 h after transfection in serum free media by FACS. b) Histogram of corresponding Jurkat transfection. Although the overall transfection levels are rather low, PF6 has the ability to transfect a large fraction of cells in the population. c) Jurkat plasmid transfection not dependent on cell confluenncy. Intriguingly, with PF6 it is possible to transfect the majority of cells independent of confluency.
Formation of plasmid/CPP complexes: 0.5 μg of pGL3 luciferase expressing plasmid or pEGFP-C1 plasmid was mixed with CPPs at different charge ratios (1:1-1:4) in MQ water in 1/10th of the final treatment volume (50 μl). After 30 min, complexes were added to cells grown in 450 μl of fresh serum free media. When using Lipofectamine 2000, complexes were prepared according to manufacturers protocol (Promega, USA).
Plasmid transfections: For plasmid transfection, 80 000 CHO or Jurkat cells were seeded 24 h before treatment. Cells were treated for 4 h with pGL3/CPP complexes in serum free DMEMF12 after which media was replaced for full growth media for additionally 20 h. Cells were lysed and analyzed in accordance with the splice correction assay.

The next assay relates to various cell types. The experiment in a line: siRNA delivery in various cell types, down-regulation of gene expression. It counts as cell-based. Conditions: low siRNA concentrations. The procedure:
as §1
siRNA transfections: Different luciferase-stable cell lines including HeLa, BHK21, and U2OS cells were seeded as in the other experiments. […] Cells were lysed and measured for luminescence 20 h later as described previously. The luminescence was normalized to protein content in each well and the RLU/mg value from untreated cells were considered as 100%. […]

The mark [1] stands for this setting: siRNA concentration, CHO, target EGFP.
Setting [2] is: siRNA concentration, SHSY5Y, target HPRT1.

Consider “Stearyl-AGYLLGK[KK2sa4qn4]INLKALAALAKKIL-NH2 [Pepfect 6]”, for which the “cells with lower expression of EGFP” value in the assay on EGFP in CHO cells (25 nM siRNA, molar ratio 40, FACS) was 90-95%. Also, in the assay on EGFP in CHO cells (50 nM siRNA, 48 h, serum free media and complete growth media), the “RNAi by confocal microscopy” value was “complete RNAi”. Besides, in the assay with EGFP in CHO cells (100 nM siRNA, full serum media, 48 h after treatment, FACS), the “cells with negligible EGFP expression” value was “approximately 98%”. Also, the “Compared to Lipofectamine” value in the assay on EGFP in CHO cells (CHO, target EGFP) is “better”; in the assay with HPRT1 in N2a cells it was “better”; in the assay with HPRT1 in SHSY5Y cells (SHSY5Y, target HPRT1), “superior”. For the same substance, the “RNAi after 24 h, result in words” value in the assay with EGFP in CHO cells (independent on siRNA concentration, serum or serum free media, flow cytometry) is “almost complete RNAi”. For the same substance, the 70% inhibition was 10 nM in the assay with EGFP in CHO cells (setting [1]), 25 to 50 nM with HPRT1 in N2a cells (siRNA concentration) and 10 to 25 nM with HPRT1 in SHSY5Y cells (setting [2]). Also, the figures for the 90% inhibition in the assay with EGFP in CHO cells (setting [1]), with HPRT1 in N2a cells (siRNA concentration) and in the assay with HPRT1 in SHSY5Y cells (setting [2]) were 20 to 25 nM, 50 to 100 nM and 50 to 100 nM, respectively. The “persistence of RNAi response” value in the assay with EGFP in CHO cells (single siRNA treatment, optimal conditions) lay in the range of 4 to 5 days. Moreover, the “RNAi response compared to Lipofectamine 2000 using 100 nM siRNA” value in the assay with HPRT1 in SHSY5Y cells (MR40, 25 nM siRNA, full growth media, 20 h) is recorded as “significantly stronger”. The “EGFP plasmid transfection, result in words” value in the assay with Jurkat suspension cells is recorded as “significant transfections”. The “RNAi, result in words” value in the assay on various cell types is listed as “almost a complete RNAi”.

Values taken from patent publication US20140140929A1, “CHEMICALLY MODIFIED CELL-PENETRATING PEPTIDES FOR IMPROVED DELIVERY OF GENE MODULATING COMPOUNDS” (priority 2008, published 2014).
